We go through eight compounds from ChEMBL document CHEMBL5291721, “A preclinical secondary pharmacology resource illuminates target-adverse drug reaction associations of marketed drugs” (Nat Commun, 2023).

Assay [1] deals with Acetylcholinesterase (Homo sapiens, UniProt P22303). The assay is classed as functional.
Assay [2] concerns the target D(1A) dopamine receptor (Homo sapiens, UniProt P21728).
Assay [3] concerns the target Prothrombin (Homo sapiens, UniProt P00734). It is filed as functional.
The target in assay [4] is T1, 5-hydroxytryptamine receptor 1A (Homo sapiens, UniProt P08908).
T1 sequence (P08908 whole entry): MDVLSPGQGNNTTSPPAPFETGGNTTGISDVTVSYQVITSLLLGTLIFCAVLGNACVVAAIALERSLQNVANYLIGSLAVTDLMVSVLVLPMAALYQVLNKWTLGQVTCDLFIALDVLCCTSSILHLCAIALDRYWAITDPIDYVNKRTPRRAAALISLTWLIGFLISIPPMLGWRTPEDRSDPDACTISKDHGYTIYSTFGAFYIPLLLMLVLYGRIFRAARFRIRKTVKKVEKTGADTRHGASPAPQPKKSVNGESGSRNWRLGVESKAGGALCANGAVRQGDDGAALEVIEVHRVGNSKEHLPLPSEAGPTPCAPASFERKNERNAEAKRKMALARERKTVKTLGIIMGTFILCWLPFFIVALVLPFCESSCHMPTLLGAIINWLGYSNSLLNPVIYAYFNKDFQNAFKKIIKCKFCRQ

Assay [5] addresses 5-hydroxytryptamine receptor 2B (Homo sapiens, UniProt P41595). The assay is classed as functional, cell-based.
Assay [6] has as its target Vascular endothelial growth factor receptor 2 (Homo sapiens, UniProt P35968). It is filed as functional.
Assay [7] concerns the target T2, Amine oxidase [flavin-containing] A (Homo sapiens, UniProt P21397).
T2 sequence (P21397 whole entry): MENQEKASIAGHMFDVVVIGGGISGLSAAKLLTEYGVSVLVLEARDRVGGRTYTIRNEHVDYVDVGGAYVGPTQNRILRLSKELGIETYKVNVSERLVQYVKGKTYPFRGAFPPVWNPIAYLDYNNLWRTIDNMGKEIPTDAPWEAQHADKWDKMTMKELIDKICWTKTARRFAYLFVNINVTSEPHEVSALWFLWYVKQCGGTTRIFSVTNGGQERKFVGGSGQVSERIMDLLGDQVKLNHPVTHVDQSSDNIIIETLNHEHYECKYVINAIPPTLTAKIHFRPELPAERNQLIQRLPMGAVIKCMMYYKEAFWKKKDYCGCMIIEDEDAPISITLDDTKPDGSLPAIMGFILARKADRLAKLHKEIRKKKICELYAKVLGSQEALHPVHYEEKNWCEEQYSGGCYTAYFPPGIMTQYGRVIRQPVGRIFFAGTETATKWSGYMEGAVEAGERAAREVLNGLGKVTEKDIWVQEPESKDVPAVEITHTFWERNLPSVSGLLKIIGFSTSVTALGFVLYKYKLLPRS
The assay is classed as functional.

In assay [8] the target is cGMP-inhibited 3',5'-cyclic phosphodiesterase 3A (Homo sapiens, UniProt Q14432). It is filed as functional.
The target of assay [9] is T3, Progesterone receptor (Homo sapiens, UniProt P06401).
T3 sequence (P06401 whole entry): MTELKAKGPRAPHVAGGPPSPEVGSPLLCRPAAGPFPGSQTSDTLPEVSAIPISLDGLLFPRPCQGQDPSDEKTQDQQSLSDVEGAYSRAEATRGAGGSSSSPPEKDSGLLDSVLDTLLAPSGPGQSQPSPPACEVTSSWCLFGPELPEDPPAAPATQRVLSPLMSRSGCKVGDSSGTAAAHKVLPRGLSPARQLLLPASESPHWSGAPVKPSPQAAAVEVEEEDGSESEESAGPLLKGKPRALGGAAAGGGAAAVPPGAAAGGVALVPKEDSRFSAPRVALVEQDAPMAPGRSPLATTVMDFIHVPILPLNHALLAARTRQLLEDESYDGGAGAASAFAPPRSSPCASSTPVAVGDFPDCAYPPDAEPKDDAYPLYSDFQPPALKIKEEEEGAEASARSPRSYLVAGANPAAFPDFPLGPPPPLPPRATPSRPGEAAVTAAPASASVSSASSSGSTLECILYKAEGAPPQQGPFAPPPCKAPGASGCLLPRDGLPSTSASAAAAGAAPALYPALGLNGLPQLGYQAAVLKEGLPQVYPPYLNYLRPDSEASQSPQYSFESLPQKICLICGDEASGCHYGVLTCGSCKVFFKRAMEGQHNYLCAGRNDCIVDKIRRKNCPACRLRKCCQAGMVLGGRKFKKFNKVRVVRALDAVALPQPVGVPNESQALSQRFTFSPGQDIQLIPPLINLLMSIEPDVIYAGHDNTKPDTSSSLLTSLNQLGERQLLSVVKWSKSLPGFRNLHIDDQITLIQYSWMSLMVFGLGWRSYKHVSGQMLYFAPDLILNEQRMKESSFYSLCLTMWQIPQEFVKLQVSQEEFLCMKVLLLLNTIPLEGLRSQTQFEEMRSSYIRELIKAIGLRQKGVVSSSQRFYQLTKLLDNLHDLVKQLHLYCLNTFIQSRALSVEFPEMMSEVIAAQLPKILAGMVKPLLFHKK

For assay [10], the target named is T4, Prostaglandin G/H synthase 1 (Homo sapiens, UniProt P23219). It is filed as functional.
Assay [11] concerns the target T4, Prostaglandin G/H synthase 1. It is filed as functional. The source holds these as a separate data set.
The target in assay [12] is Sodium-dependent noradrenaline transporter (Homo sapiens, UniProt P23975).
The target in assay [13] is Sodium-dependent dopamine transporter (Homo sapiens, UniProt Q01959).
Assay [14] has as its target T5, Thromboxane A2 receptor (Homo sapiens, UniProt P21731).
T5 sequence (P21731 whole entry): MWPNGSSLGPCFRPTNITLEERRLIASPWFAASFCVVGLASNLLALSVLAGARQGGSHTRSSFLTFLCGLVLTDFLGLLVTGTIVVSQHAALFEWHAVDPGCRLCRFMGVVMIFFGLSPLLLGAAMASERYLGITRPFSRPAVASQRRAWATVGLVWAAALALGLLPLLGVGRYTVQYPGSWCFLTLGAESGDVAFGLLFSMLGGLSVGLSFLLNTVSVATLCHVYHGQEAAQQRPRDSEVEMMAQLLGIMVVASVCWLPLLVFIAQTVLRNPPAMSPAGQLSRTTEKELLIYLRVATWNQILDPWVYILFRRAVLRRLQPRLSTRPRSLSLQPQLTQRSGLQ
The assay is classed as functional, cell-based.

For assay [15], the target named is T5, Thromboxane A2 receptor. It is filed as functional, cell-based. This is another data set of the same source.

Structures are written as SMILES.
Further: assay procedure not described here.

cGMP-inhibited 3',5'-cyclic phosphodiesterase 3A, sequence (Q14432 whole entry): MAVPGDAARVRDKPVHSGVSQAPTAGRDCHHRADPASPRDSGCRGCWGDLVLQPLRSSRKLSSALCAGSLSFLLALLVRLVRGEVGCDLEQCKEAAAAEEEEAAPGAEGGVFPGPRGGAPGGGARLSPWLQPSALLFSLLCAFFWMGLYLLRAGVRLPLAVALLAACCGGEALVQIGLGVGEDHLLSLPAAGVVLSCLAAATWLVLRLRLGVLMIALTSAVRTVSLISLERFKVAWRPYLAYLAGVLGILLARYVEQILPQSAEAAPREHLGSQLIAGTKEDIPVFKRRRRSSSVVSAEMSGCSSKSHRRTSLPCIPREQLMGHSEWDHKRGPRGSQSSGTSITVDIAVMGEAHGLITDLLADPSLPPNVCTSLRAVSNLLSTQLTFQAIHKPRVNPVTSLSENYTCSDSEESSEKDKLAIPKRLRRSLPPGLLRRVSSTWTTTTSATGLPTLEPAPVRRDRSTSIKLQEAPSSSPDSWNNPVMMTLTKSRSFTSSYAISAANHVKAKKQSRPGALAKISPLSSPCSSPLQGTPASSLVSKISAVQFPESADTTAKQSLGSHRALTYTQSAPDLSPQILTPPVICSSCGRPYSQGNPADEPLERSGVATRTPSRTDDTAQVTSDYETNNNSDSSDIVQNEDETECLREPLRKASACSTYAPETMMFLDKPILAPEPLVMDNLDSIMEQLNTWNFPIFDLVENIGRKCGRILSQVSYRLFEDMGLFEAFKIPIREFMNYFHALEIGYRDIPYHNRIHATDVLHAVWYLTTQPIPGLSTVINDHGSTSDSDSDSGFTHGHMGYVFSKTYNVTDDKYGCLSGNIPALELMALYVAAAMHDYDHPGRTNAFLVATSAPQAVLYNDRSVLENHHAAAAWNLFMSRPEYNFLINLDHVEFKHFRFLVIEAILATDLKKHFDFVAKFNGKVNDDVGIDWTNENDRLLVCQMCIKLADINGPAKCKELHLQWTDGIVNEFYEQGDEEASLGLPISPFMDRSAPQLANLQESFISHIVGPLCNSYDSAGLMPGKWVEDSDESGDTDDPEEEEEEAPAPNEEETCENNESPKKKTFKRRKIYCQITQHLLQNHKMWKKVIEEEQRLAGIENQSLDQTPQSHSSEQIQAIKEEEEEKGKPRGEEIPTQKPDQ
Acetylcholinesterase, sequence (P22303 whole entry): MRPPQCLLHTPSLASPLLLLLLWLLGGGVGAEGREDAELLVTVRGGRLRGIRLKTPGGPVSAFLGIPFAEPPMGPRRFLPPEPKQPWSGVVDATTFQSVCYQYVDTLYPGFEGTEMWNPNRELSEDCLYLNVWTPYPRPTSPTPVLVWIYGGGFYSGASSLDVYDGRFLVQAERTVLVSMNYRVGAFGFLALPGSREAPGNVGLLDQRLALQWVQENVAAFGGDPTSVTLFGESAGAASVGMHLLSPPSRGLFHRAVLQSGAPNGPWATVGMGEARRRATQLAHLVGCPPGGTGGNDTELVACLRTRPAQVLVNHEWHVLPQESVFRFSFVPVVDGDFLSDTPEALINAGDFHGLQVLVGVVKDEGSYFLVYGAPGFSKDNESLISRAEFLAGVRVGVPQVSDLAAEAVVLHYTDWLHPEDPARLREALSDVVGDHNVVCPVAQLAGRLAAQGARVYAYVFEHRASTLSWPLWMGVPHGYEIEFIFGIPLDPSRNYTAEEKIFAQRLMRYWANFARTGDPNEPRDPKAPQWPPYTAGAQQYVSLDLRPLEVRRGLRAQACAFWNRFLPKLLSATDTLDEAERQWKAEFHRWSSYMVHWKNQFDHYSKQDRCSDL
Vascular endothelial growth factor receptor 2, sequence (P35968 whole entry): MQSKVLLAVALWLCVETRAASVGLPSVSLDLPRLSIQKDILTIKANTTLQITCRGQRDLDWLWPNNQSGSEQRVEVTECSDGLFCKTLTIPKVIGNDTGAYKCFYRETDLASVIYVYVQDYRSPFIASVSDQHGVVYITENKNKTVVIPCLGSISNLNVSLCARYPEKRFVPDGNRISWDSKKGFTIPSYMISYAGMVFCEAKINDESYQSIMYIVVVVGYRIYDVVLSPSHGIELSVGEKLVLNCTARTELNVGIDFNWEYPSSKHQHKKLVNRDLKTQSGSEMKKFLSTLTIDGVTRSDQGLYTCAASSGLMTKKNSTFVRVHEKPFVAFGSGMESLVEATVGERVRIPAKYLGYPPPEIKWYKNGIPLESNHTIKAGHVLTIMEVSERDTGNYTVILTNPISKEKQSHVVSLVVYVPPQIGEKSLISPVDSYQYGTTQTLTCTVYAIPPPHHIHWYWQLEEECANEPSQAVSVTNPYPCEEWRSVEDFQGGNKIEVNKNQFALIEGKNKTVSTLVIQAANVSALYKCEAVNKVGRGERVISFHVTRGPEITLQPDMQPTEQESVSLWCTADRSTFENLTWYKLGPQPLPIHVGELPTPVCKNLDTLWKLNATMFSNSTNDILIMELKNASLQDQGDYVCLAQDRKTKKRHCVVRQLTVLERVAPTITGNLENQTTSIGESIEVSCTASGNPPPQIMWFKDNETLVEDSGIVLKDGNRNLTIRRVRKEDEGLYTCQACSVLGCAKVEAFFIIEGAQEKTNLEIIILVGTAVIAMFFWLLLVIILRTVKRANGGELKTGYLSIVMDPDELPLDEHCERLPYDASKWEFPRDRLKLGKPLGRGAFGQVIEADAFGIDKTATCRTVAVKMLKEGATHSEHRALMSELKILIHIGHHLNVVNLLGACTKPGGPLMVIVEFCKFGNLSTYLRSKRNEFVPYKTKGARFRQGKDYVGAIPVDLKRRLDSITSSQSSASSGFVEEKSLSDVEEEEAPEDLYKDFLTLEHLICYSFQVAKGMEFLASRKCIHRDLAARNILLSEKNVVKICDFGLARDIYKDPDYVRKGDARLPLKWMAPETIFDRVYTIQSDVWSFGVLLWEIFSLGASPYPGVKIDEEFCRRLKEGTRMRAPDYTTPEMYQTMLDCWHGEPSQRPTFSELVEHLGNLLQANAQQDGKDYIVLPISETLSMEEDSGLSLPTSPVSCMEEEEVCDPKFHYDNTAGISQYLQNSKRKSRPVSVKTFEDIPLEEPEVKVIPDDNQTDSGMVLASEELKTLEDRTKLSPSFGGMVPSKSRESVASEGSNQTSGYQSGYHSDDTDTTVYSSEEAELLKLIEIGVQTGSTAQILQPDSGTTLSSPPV
D(1A) dopamine receptor, sequence (P21728 whole entry): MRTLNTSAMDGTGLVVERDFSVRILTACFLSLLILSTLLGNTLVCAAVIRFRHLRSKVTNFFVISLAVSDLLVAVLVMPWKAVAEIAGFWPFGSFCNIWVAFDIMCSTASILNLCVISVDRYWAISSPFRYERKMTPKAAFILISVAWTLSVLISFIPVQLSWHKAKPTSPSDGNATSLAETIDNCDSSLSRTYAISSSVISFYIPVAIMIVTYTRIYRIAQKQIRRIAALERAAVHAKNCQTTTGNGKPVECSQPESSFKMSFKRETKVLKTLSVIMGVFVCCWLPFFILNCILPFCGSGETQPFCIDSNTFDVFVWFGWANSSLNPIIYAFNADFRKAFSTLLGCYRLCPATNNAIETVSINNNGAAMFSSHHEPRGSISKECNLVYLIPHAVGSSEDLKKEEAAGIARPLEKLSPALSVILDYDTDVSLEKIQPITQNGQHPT
T4 sequence (P23219 whole entry): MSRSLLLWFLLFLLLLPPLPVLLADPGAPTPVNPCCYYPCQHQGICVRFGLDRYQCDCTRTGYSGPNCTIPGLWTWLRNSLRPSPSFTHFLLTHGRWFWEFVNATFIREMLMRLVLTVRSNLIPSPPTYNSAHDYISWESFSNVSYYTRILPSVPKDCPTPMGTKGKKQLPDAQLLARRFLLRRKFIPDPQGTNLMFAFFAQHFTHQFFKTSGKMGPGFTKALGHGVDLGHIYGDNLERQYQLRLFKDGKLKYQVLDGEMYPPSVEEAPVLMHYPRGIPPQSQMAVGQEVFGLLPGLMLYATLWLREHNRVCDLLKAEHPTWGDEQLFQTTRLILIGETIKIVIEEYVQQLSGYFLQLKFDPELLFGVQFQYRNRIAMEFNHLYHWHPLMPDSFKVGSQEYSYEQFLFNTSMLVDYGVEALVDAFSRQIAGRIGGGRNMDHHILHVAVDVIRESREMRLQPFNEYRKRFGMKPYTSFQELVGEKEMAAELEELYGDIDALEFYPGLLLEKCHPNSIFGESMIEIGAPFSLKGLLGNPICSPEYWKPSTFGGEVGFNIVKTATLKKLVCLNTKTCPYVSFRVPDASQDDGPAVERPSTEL
Sodium-dependent dopamine transporter, sequence (Q01959 whole entry): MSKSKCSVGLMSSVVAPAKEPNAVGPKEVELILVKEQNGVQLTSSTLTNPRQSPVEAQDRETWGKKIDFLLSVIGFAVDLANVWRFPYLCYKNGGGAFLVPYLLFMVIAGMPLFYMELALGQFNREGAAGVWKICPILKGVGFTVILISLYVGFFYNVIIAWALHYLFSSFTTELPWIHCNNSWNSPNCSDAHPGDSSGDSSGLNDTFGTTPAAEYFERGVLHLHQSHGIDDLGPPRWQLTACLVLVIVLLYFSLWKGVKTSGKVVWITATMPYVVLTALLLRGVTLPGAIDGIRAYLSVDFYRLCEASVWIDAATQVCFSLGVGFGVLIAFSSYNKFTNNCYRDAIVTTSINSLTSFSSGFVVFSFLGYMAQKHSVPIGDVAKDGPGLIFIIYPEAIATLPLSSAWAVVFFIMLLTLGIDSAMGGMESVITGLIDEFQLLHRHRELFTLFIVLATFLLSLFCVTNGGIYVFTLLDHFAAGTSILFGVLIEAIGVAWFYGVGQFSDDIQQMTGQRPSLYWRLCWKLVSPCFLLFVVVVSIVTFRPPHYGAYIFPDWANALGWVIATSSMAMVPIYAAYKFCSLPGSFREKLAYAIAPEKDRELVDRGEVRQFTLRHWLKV

Take `CC(C)=CCC/C(C)=C/CC/C(C)=C/CC/C(C)=C/CC1=C(C)C(=O)c2ccccc2C1=O` [MENATETRENONE]: the AC50 in [1] is above 30 µM; in assay [2], above 30 µM; in [3], above 30 µM; in assay [4], 22.5 µM; in assay [5], above 30 µM; in assay [6], above 30 µM. Also, the AC50 in [7] was above 30 µM; in [8], 5.09 µM; in [9], 13.5 µM; in [10] it was 13.5 µM; in [11], 0.78 µM; in assay [12] it was above 30 µM. The half-maximal activity concentration (AC50) in assay [13], in [14] and in [15] was above 30 µM in each case.

Turning to `COCC(=O)O[C@]1(CCN(C)CCCc2nc3ccccc3[nH]2)CCc2cc(F)ccc2[C@@H]1C(C)C` [MIBEFRADIL], the AC50 in [1] is above 30 µM; in assay [2] it was 10.1 µM; in assay [3], above 30 µM; in assay [4], 0.746 µM; in assay [5], above 30 µM; in assay [6] it was above 30 µM. For the same compound, the AC50 in assay [7] is above 30 µM; in assay [8], above 30 µM; in assay [9] it was above 30 µM; in assay [10] it was above 30 µM; in assay [11], above 30 µM; in [12] it was 20.2 µM. In addition, the AC50 in [13] is 9.53 µM; in assay [14], 21.9 µM; in [15], above 3 µM.

In the case of `Oc1ccc(OCc2ccccc2)cc1` [MONOBENZONE], the concentration at half-maximal activity (AC50) in [1], in assay [2], in [3], in [4], in [5] and in assay [6] was above 30 µM each time. The AC50 is above 30 µM in assay [7]; above 30 µM in [8]; above 30 µM in assay [9]; 11 µM in assay [10]; 7.88 µM in assay [11]; 6.96 µM in assay [12]. For the same compound, the figures for the AC50 in assay [13], in assay [14] and in assay [15] were 8.56 µM, above 30 µM and above 30 µM, respectively.

Take `NC(=O)N/N=C/c1ccc([N+](=O)[O-])o1` [NITROFURAZONE]: the AC50 in assay [1], in assay [2], in assay [3], in assay [4], in assay [5] and in assay [6] was above 30 µM each time. Further, the AC50 was above 30 µM in assay [7]; 29.8 µM in assay [8]; above 30 µM in assay [9]; above 30 µM in assay [10]; above 30 µM in assay [11]; above 30 µM in assay [12]. Also, the AC50 in [13], in [14] and in assay [15] was above 30 µM throughout.

In the case of `C#C[C@]1(OC(C)=O)CC[C@H]2[C@@H]3CCC4=CC(=O)CC[C@@H]4[C@H]3CC[C@@]21C` [NORETHINDRONE ACETATE], the half-maximal activity concentration (AC50) in assay [1], in [2], in assay [3], in assay [4], in assay [5] and in [6] was above 30 µM each time. For the same compound, the half-maximal activity concentration (AC50) was above 30 µM in assay [7]; above 30 µM in [8]; 0.033 µM in assay [9]; above 30 µM in [10]; above 30 µM in assay [11]; 19.1 µM in [12]. For the same compound, the concentration at half-maximal activity (AC50) in [13] is above 30 µM; in [14], above 30 µM; in assay [15] it was 9.74 µM.

With `C[C@@H]1O[C@@H](O[C@H]2C[C@@H](O)[C@]3(CO)[C@H]4[C@H](O)C[C@]5(C)[C@@H](C6=CC(=O)OC6)CC[C@]5(O)[C@@H]4CC[C@]3(O)C2)[C@H](O)[C@H](O)[C@H]1O` [OUABAIN], the concentration at half-maximal activity (AC50) in assay [1], in assay [2], in assay [3], in [4], in [5] and in assay [6] was above 30 µM each time. For the same compound, the half-maximal activity concentration (AC50) in [7], in [8], in assay [9], in assay [10], in assay [11] and in [12] was above 30 µM each time. Further, the half-maximal activity concentration (AC50) in [13], in assay [14] and in assay [15] was above 30 µM throughout.

`CC(C)N1CCOC(c2cccc(C(F)(F)F)c2)C1` (stereo not given) [OXAFLOZANE]: the AC50 in assay [1] was above 30 µM; in assay [2], above 30 µM; in [3], above 30 µM; in [4], 0.513 µM; in assay [5] it was 1.01 µM; in assay [6], above 30 µM. Moreover, the AC50 in assay [7], in [8], in assay [9], in assay [10], in assay [11] and in assay [12] was above 30 µM each time. Further, the AC50 in assay [13], in assay [14] and in assay [15] was above 30 µM in each case.

Consider `O=C1Nc2ccccc2C1(c1ccc(O)cc1)c1ccc(O)cc1` [OXYPHENISATINE], for which the AC50 in assay [1], in [2], in assay [3], in [4], in [5] and in assay [6] was above 30 µM each time. Also, the concentration at half-maximal activity (AC50) in [7], in [8], in [9], in [10], in assay [11] and in assay [12] was above 30 µM throughout. Besides, the AC50 in assay [13], in assay [14] and in assay [15] was above 30 µM in each case.
